# Entries after “also recorded” stand apart in the source; their conditions may differ. Where two headings read alike, the source gives them in different places.
# What was measured:
# [1] = test system: NSCLC microtumors (A549 NSCLC cells with human lung fibroblasts Wi38); assay: Non-small cell lung cancer (NSCLC) microtumor size/growth assay; type: cell-based; settings: for Response: 14 days window; for effect on NSCLC microtumor growth: dosed 2× for 8h with 48h gap (FIG. 6, FIG. 11); for efficacy: impact on tumor growth: Vinorelbin high concentration vs low and high concentrated Docetaxel, dosed 2× for 8h with an 8h gap (FIG. 13B, D)
# Procedure: The NSCLC model was produced by mixing A549 NSCLC cells (ATCC® CCL-18S™) with human lung fibroblasts (Wi38, ATCC® CCL-7S™) in a non-adhesive 96-well plate (GravityTRAP™). Drugs were dosed 2× for 8h with 48h gap.
# Single and drug combinations were dosed 2× for 8h with a gap of 48h and growth monitored over time.
# (§1) FIG. 13 exemplifies tox testing of single drugs using connective/stromal microtissues (Wi38) and efficacy testing on non-small cell tumor microtissues (A549; Wi38). Vinorelbin and Docetaxel, both disrupting microtubule, were dosed 2× for 8h with an 8h gap.
# [2] = reference cmax used for potency; cited from earlier work
# [3] = test system: pancreatic microtumors from pancreatic cancer cell line Panc-1 in co-culture with mouse fibroblast cell line NIH3T3; assay: Pancreatic microtumor (3D microtissue) size/growth assay; settings: for Response: 14 days window; for ΔT14/ΔC14: day 14; for effect on pancreatic microtumor growth: dosed for 8h with a 48h gap (FIG. 5)
# Procedure: Both cells were expanded in cell culture flasks using Dulbecco's modification of Eagle medium (DMEM) supplemented with 10% fetal calf serum. After reaching confluency the were removed from the cell culture flask enzymatic digestion (Trypsin). Cell numbers of both cell types were assessed using a Neubauer chamber, and the respective cell number mixed to produce the co-culture microtumors. Seventy ul of the cell mixture was inoculated in each well of a non-adhesive 96-well plates (GravityTRAP™) using Dulbecco's modification of Eagle medium (DMEM) supplemented with 10% horse serum. Pancreatic microtumors were matured in a mammalian cell culture incubator at 37° C. with 5% CO2. […] After 48 hours the drug was removed by changing the culture medium with drug-free medium. The size of the pancreatic microtumors was monitored prior dosing and continuously after dosing using bright field microscopy. Growth is presented relative to the size of the pancreatic tumor microtissue prior compound treatment t0 (adapted from the RECIST criteria).
# All drugs used were dissolved according to the manufactures protocol.
# [4] = test system: microtumors from NSCLC cells directly derived from patients (NSCLC resection); assay: Patient-derived NSCLC microtumor growth assay; type: cell-based, human; settings: dosed 2× for 8h with a 48h gap (FIG. 12)
# Procedure: A NSCLC resection was dissociated, and the cell Suspension used to produce microtumors in a multi-well format (FIG. 12A). Drugs were dosed 2× for 8h with a 48h gap.
# [5] = test system: connective/stromal microtissues (Wi38); assay: Tox testing on connective/stromal microtissues; type: cell-based, human; settings: dosed 2× for 8h with an 8h gap (FIG. 13A, C)
# Procedure: as §1
smiles,measurement,setting,value
CCc1c2c(nc3ccc(OC(=O)N4CCC(N5CCCCC5)CC4)cc13)-c1cc3c(c(=O)n1C2)COC(=O)[C@]3(O)CC [Irinotecan],ΔT14/ΔC14,[1],−0.32
same,Time to MR (TMR),[1]; Irinotecan 6.75 ug/ml,4 days
same,Time until relapse (TR),[1]; Irinotecan 6.75 ug/ml,5 days
same,ΔT14/ΔC14,"[1]; Irinotecan 6.75 ug/ml, day 14",−0.60
same,Time to MR (TMR),[1]; Irinotecan 27 ug/ml,14 days
same,Response,[1]; Irinotecan 27 ug/ml,RE (≥20% decrease in microtumor size)
same,ΔT14/ΔC14,"[1]; Irinotecan 27 ug/ml, day 14",−3.09
same,median cmax,[2],(median cmax = 5 ug/ml)
same,Response,[3]; Irinotecan 0.675 ug/ml,PR (≥20%-100% increase in microtumor size)
same,ΔT14/ΔC14,[3]; Irinotecan 0.675 ug/ml,1.04
same,Time to MR (TMR),[3]; Irinotecan 6.75 ug/ml,7 days
same,Time until relapse (TR),[3]; Irinotecan 6.75 ug/ml,7 days
same,Response,[3]; Irinotecan 6.75 ug/ml,SR (+/−20% increase/decrease in size)
same,ΔT14/ΔC14,[3]; Irinotecan 6.75 ug/ml,0.06
same,Time to MR (TMR),[3]; Irinotecan 67.5 ug/ml,14 days
same,Response,[3]; Irinotecan 67.5 ug/ml,RE (≥20% decrease in microtumor size)
same,ΔT14/ΔC14,[3]; Irinotecan 67.5 ug/ml,−0.36
same,dose to growth correlation,"[3]; indicated concentrations, drug removed after 48 hours, growth relative to size at t0 (FIG. 4)",clear correlation of dose to growth
C#Cc1cccc(Nc2ncnc3cc(OCCOC)c(OCCOC)cc23)c1 [Erlotinib],effect on NSCLC microtumor growth,[1],reduced growth
same,time after which growth relapses,[1]; dosed 2× for 8h with a gap of 48h (FIG. 11),> 7 days
same,"impact on tumor growth, single doses",[4],hardly an impact on tumor growth
Nc1nc2[nH]cc(CCc3ccc(C(=O)N[C@@H](CCC(=O)O)C(=O)O)cc3)c2c(=O)[nH]1 [Pemetrexed],effect on NSCLC microtumor growth,[1],tumor remission
same,effect on pancreatic microtumor growth,[3],did not affect tumor growth; also recorded: not active
Nc1ccn([C@@H]2O[C@H](CO)[C@@H](O)C2(F)F)c(=O)n1 [Gemcitabine],Time to MR (TMR),[1]; Gemcitabine 0.1 ug/ml,14 days
same,Response,[1]; Gemcitabine 0.1 ug/ml,RE (≥20% decrease in microtumor size)
same,ΔT14/ΔC14,"[1]; Gemcitabine 0.1 ug/ml, day 14",−2.72
same,Time to MR (TMR),[1]; Gemcitabine 0.3 ug/ml,14 days
same,Response,[1]; Gemcitabine 0.3 ug/ml,RE (≥20% decrease in microtumor size)
same,ΔT14/ΔC14,"[1]; Gemcitabine 0.3 ug/ml, day 14",−4.04
same,Time to MR (TMR),[1]; Gemcitabine 0.5 ug/ml,14 days
same,Response,[1]; Gemcitabine 0.5 ug/ml,RE (≥20% decrease in microtumor size)
same,ΔT14/ΔC14,"[1]; Gemcitabine 0.5 ug/ml, day 14",−3.87
same,median cmax,[2],(median cmax = 20 ug/ml)
same,Time to MR (TMR),[3]; Gemcitabine 0.1 ug/ml,10 days
same,Time until relapse (TR),[3]; Gemcitabine 0.1 ug/ml,10 days
same,Response,[3]; Gemcitabine 0.1 ug/ml,SR (+/−20% increase/decrease in size)
same,ΔT14/ΔC14,"[3]; Gemcitabine 0.1 ug/ml, treatment effect to untreated control",−0.25
same,Time to MR (TMR),[3]; Gemcitabine 0.5 ug/ml,10 days
same,Time until relapse (TR),[3]; Gemcitabine 0.5 ug/ml,10 days
same,Response,[3]; Gemcitabine 0.5 ug/ml,SR (+/−20% increase/decrease in size)
same,ΔT14/ΔC14,[3]; Gemcitabine 0.5 ug/ml,−0.23
same,effect on pancreatic microtumor growth,[3],unfolds its effect quickly
same,day after which treated microtumors relapsed,[3]; dosed for 8h with a 48h gap (FIG. 5A),> 10 days
CC(=O)O[C@@]12CO[C@@H]1C[C@H](O)[C@@]1(C)C(=O)[C@H](O)C3=C(C)[C@@H](OC(=O)[C@H](O)[C@@H](NC(=O)OC(C)(C)C)c4ccccc4)C[C@@](O)([C@@H](OC(=O)c4ccccc4)[C@H]21)C3(C)C [Docetaxel],efficacy: impact on tumor growth,[1],higher efficacy
same,cytotoxicity on stromal microtissues compared to untreated control,[5]; 4.05 ug/ml,less toxicity
same,effect on pancreatic microtumor growth,[3],much slower
same,sustainability of response,"[3]; dosed for 8h with a 48h gap, compared with Gemcitabine (FIG. 5A)",more sustainable
O=C1CCC(N2C(=O)c3ccccc3C2=O)C(=O)N1 (stereo not drawn) [Thalidomide],effect on NSCLC microtumor growth,[1],no significant impact on tumor growth remission
same,"impact on tumor growth, single doses",[4],hardly an impact on tumor growth
CCC1=C[C@@H]2CN(C1)Cc1c([nH]c3ccccc13)[C@@](C(=O)OC)(c1cc3c(cc1OC)N(C)[C@H]1[C@@](O)(C(=O)OC)[C@H](OC(C)=O)[C@]4(CC)C=CCN5CC[C@]31[C@@H]54)C2 [Vinorelbin],efficacy: impact on tumor growth,[1],less impact on tumor growth
same,cytotoxicity on stromal microtissues compared to untreated control,[5]; high dose 0.68 ug/ml,elevated cytotoxicity
